# Measured values as given in patent publication EP4796530A1 (Biocells (Beijing) Biotech Co., Ltd., priority 2023, dated 2025).
# How the values were obtained:
# [1] = biological target: NLRP3 (Mus musculus, UniProt Q8R4B8); test: LPS-induced sepsis model in mice: serum IL-1β and survival rate; format: in vivo, C57BL/6 mice; design: tissue National Institutes for Food and Drug Control; host or cells: C57BL/6J mice in vivo (serum IL-1β in A7, ascites IL-1β in A8); settings: 30 mg/kg intraperitoneally 1 h before 20 mg/kg LPS
# Chain of NLRP3 (Mus musculus, UniProt Q8R4B8) (Q8R4B8 whole entry): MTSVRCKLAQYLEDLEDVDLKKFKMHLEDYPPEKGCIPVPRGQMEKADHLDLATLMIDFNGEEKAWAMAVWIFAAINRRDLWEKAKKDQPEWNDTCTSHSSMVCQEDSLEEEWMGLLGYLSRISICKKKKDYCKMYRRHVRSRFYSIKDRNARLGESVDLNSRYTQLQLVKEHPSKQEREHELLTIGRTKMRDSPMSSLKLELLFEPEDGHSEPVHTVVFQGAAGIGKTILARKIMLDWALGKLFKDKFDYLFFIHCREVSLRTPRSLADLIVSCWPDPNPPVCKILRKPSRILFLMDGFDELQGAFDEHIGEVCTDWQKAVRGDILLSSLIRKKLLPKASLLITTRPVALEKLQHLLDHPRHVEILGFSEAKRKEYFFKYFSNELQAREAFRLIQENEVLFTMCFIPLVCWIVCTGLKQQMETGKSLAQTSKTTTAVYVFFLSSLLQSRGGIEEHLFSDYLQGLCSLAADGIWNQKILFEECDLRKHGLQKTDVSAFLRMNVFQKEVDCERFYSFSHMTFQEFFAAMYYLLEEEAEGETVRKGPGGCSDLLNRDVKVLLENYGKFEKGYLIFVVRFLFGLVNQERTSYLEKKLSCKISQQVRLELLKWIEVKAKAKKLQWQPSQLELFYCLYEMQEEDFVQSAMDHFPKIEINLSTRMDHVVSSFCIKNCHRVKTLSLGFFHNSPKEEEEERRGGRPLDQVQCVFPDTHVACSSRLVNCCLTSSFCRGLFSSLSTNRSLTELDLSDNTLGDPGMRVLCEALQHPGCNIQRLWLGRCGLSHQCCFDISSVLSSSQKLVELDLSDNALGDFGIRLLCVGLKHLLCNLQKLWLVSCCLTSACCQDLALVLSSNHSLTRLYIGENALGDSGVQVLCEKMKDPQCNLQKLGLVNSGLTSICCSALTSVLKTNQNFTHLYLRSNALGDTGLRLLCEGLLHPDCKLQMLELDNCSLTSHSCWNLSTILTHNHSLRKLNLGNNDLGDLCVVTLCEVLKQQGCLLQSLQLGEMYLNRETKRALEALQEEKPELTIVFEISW
# Procedure: Intraperitoneal injection of 20 mg/kg LPS can induce a septic state in C57BL/6 mice and cause a significant increase in serum IL-1β after injection. Example compounds were intraperitoneally injected preemptively to study the effects on IL-1β increase and mouse survival rate. LPS was purchased from Sigma, Cat. No. L2630; and C57BL/6J male mice aged 6-8 weeks were purchased from National Institutes for Food and Drug Control.
# Experimental groups: a sham group, a model group, and an example compound dosing group.
# 30 mg/kg of example compounds were injected intraperitoneally. 1 h later, 20 mg/kg LPS was injected intraperitoneally into the model group and the example compound dosing group for modeling, and the control solvent was injected into the sham group. Serum samples were collected from a batch of mice at 2.5 h and 4 h after modeling, and the levels of IL-1β were analyzed. For another batch of mice, the survival rate of the mice was calculated after modeling.
# [2] = biological target: NLRP3 (Homo sapiens, UniProt Q96P20); test: Inhibition curves (IC50) of canonical NLRP3 activation in healthy human whole blood, IL-1β release; format: cell-based; settings: LPS+5 µM Nig canonical activation model
# Chain of NLRP3 (Homo sapiens, UniProt Q96P20) (Q96P20 whole entry): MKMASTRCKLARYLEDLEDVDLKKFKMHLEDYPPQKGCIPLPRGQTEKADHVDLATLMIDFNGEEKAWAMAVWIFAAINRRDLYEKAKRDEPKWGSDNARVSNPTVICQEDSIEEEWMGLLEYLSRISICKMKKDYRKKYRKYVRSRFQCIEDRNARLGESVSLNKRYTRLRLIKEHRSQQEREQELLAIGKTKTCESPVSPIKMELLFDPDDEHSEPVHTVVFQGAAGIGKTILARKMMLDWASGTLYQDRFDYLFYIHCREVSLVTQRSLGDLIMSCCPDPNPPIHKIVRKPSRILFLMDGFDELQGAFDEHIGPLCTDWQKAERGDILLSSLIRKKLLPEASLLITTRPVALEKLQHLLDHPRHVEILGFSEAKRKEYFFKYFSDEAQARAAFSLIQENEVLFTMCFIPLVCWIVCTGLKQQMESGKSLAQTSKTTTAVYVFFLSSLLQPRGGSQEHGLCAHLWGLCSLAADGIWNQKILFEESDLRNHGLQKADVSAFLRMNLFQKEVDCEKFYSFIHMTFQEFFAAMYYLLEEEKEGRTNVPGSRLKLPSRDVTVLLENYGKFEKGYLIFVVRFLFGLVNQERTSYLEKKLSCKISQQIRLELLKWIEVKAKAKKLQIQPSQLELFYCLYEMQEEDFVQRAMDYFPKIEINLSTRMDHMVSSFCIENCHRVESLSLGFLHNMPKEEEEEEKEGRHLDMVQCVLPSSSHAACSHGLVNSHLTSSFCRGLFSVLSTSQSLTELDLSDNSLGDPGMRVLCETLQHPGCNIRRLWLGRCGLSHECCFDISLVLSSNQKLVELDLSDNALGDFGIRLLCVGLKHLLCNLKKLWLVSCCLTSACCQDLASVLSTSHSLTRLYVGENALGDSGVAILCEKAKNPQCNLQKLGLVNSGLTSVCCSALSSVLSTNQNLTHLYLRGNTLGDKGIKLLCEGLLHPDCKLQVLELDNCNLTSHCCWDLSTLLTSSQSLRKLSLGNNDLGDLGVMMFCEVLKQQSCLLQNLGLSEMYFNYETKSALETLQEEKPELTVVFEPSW
# Procedure: 10 mL of human whole blood was collected intravenously aseptically, and plated into a 96-well plate, with 198 µL per well. Then, 2 µL of 100× gradient dilutions of the example compounds at specified concentrations were added, immediately followed by the addition of 10 µL of 21 µg/mL LPS gradient dilution. 3 h later, nigericin with a working concentration of 5 µM or 1 mM ATP was added. After stimulation for 1 h, the whole blood was collected and centrifuged to collect the supernatant. IL-1β in the sample supernatant was detected by ELISA method.
# Experimental groups: a negative control group, an LPS-alone incubation control group, an LPS+Nig/ATP positive control group, and a 1 µM example compound experimental group.
# 10 mL of human whole blood was collected intravenously aseptically. The anticoagulant heparin sodium was added preemptively into a 50 mL centrifuge tube. The collected whole blood was directly plated in a 96-well plate, with 198 µL per well. […] IL-1β in the sample supernatant was detected by ELISA method.
# Therefore, the relative change in the amount of IL-1β release may directly reflect NLRP3 inhibitory effect. The inhibitory effect of the compounds varies with different concentrations, and based on this, an inhibition curve can be constructed, and the inhibitory effect of the compounds were assessed by IC50.
smiles,measurement,setting,value
"CN(C)Cc1cccc(S(=O)(=O)NC(=O)Nc2c3c(cc4c2CCC4)CCC3)c1N [Example 19, 2-amino-3-((dimethylamino)methyl)-N-((1,2,3,5,6,7-hexahydro-s-indacen-4-yl)carbamoyl)benzenesulfonamide]",mouse survival rate compared with the model group,[1],significantly improved
same,survival rate compared with MCC950,[1],significantly further improved
same,IL-1β level in serum compared with the model group,[1]; 2.5 h after modeling,significant differences
same,IL-1β level in serum compared with the model group,[1]; 4 h after modeling,significant differences
same,IC50,[2],1270 nM
